Columns and labels:
[1] = system: BALB/c mice, OVA induced inflammation and AHR; test: Ovalbumin-induced airway inflammation and AHR mouse model; type: in vivo; conditions: HPBCD 10 mM inhalation
Experimental: (§1) Two intranasal instillations of house dust mite were performed on days 0 and 7 to induce the migration of specific memory CD4+ T-cells into lung parenchyma, followed by a challenge instillation on day 14. […] The last house dust mite instillation was preceded by two days of HPBCD or PBS inhalations and followed by three inhalations until sacrifice (FIG. 1A). […] Airway responsiveness was evaluated by exposing animals to increasing doses of inhaled methacholine and by measuring Newtonian resistances representing the resistance of central or conducting airways. […] The bronchoalveolar lavage fluid (BALF) was then recovered and analyzed for cell content. […] The effect of HPBCD inhalation on T-cell numbers in lung parenchyma was investigated by flow cytometry.
Mice were lightly isoflurane-anesthetized and received an intra-nasal (i.n) instillation of HDM extract (100 μg; 50 μl) in endotoxin-free saline on days 0, 7 and 14. Mice were subjected to inhalation (generated by ultrasonic nebulizer (Devilbiss 2000)) of HPBCD 10 mM or endotoxin-free saline for 40 minutes between day 12 and 16. On day 14, they received the inhalation 1 h before the last i.n. instillation of HDM. After measurement of bronchial responsiveness using the FlexiVent System, mice were sacrificed on day 17. Mice submitted to ovalbumin as allergen were i.p injected with 10 mcg ovalbumin grade 5 and exposed to ovalbumin grade 3 by inhalation between day 21 and 25. Mice were treated with HPBCD 10 mM given by inhalation between day 19 and 25. […]
Mice were anesthetized by intraperitoneal injection with a mixture of ketamine (10 mg/ml, Merial, Brussel, Belgium) and xylazine (1 mg/ml, VMD, Arendonk, Belgium). […] Respiratory parameters following methacholine challenge (3, 6, and 12 gr/l (or 24 gr/l)) were evaluated using a 3 sec broadband signal to measure input impedance from 1 to 20.5 Hz and to calculate constant-phase model parameters (Quick-prime 3). Newtonian resistance (Rn) was the main parameter measured during the challenge. […]

[2] = system: naïve CD4+ T cells (Balb/c); test: In-vitro T-cell proliferation assay (BrdU incorporation, IL-2 secretion); type: cell-based, mice; conditions: HPBCD 5 mM, 48 h incubation
Experimental: The term “T-cell proliferation” means an increase in T-cells over a given period of time. In one embodiment, T-cell proliferation is measured by flow cytometry analysis of lung TH2 cells and total leukocyte counts. An exemplary embodiment of a way to measure T-cell proliferation is given in example 1 below. In one embodiment, naïve CD4+ T cells are exposed to HPBCD at a concentration of 5 mM and an anti-CD3 (3 mcg/ml) for 24 hours or 48 hours with HPBCD (5 mM) or with culture medium alone at 37° C. 5% CO2. During the last 2 hours of the proliferation test, Bromodeoxyuridine is added to the medium and incorporation is quantified by ELISA. IL-2 secretion is measured in the medium after 24 hours and 48 hours of anti-CD3 stimulation through ELISA. HPBCD was used at a concentration of 5 mM. […] Naïve CD4+ T cells were isolated from Balb/c mice spleen and purified with a MACS® negative selection kit. 1.5×10^5 cells were seeded in a 96 well plate and incubated with HPBCD 5 mM (in RPMI 10% FBS 1% pen/strep) or with medium alone for 3 h. Cells were then recovered and plated in an anti-CD3 (3 mcg/ml) coated well for 24 or 48 h with HPBCD (5 mM) or with culture medium alone at 37° C. 5% CO2. During the last 2 h of the proliferation test, BrdU was added to medium and incorporation was quantified by ELISA following manufacturer instructions. […]

[3] = system: BALB/c mice, house dust mite (HDM)-induced inflammation and AHR; type: in vivo
Experimental: The impact of HPBCD on asthma-associated inflammation and bronchial hyperresponsiveness was investigated in a mouse model of airway inflammation and hyperresponsiveness.
Six to seven mice per group were tested. Two-tailed Mann-Whitney test were performed with p-values of *P<0.05, **P<0.01 in two independent experiments.
as §1
Males BALB/c mice of 6 to 8 weeks old were purchased from Janvier Labs (Saint-Berthevin, France). All mice were bred and housed in University facilities. All experiences and protocols were previously approved by local ethic (animal care and use) committee from the University of Liege.
Mice were lightly isoflurane-anesthetized and received an intra-nasal (i.n) instillation of HDM extract (100 μg; 50 μl) in endotoxin-free saline on days 0, 7 and 14. Mice were subjected to inhalation (generated by ultrasonic nebulizer (Devilbiss 2000)) of HPBCD 10 mM or endotoxin-free saline for 40 minutes between day 12 and 16. On day 14, they received the inhalation 1 h before the last i.n. instillation of HDM. After measurement of bronchial responsiveness using the FlexiVent System, mice were sacrificed on day 17. Mice submitted to ovalbumin as allergen were i.p injected with 10 mcg ovalbumin grade 5 and exposed to ovalbumin grade 3 by inhalation between day 21 and 25. Mice were treated with HPBCD 10 mM given by inhalation between day 19 and 25. After measurement of bronchial responsiveness using the FlexiVent System, mice were sacrificed on day 26.
Mice were anesthetized by intraperitoneal injection with a mixture of ketamine (10 mg/ml, Merial, Brussel, Belgium) and xylazine (1 mg/ml, VMD, Arendonk, Belgium). A tracheotomy was performed by insertion of a 20 gauge polyethylene catheter into the trachea. Mice were ventilated with a flexiVent small animal Ventilator® (SCIREQ, Montreal, Canada) as previously described (18). Respiratory parameters following methacholine challenge (3, 6, and 12 gr/l (or 24 gr/l)) were evaluated using a 3 sec broadband signal to measure input impedance from 1 to 20.5 Hz and to calculate constant-phase model parameters (Quick-prime 3). Newtonian resistance (Rn) was the main parameter measured during the challenge.
Mice were sacrificed and a bronchoalveolar lavage was performed using PBS-EDTA 0.05 mM (Calbiochem, Darmstadt, Germany). Cells were recovered by gentle manual aspiration. After centrifugation of bronchoalveolar fluid (BALF) (1200 rpm; 10 min; 4° C.), the cell pellet was resuspended in 0.5 ml PBS-EDTA 0.05 mM. The differential cell counts were performed on cytocentrifuged preparations (Cytospin) after Diff-Quick (Dade, Belgium) staining.
Left lung was excised and snap frozen in liquid nitrogen. Right lung was infused with 4% paraformaldehyde, embedded in paraffin and used for histology. Sections of 5 μm thickness were cut off from paraffin and were stained with haematoxylin-eosin to estimate the extent of inflammation (18) and with Alcian blue (mucin stain).
To obtain single-lung-cell suspensions, lungs were perfused with 10 ml HBSS through the right ventricle, razor-cut into small pieces and digested for 1 hour at 37° C. in 1 mg/ml collagenase A (Roche) and 0.05 mg/ml DNasel (Roche) in HBSS. […]

Structure (SMILES): CC(O)COC[C@H]1O[C@@H]2O[C@H]3[C@H](O)[C@@H](O)[C@@H](O[C@H]4[C@H](O)[C@@H](O)[C@@H](O[C@H]5[C@H](O)[C@@H](O)[C@@H](O[C@H]6[C@H](O)[C@@H](O)[C@@H](O[C@H]7[C@H](O)[C@@H](O)[C@@H](O[C@H]8[C@H](O)[C@@H](O)[C@@H](O[C@H]1[C@H](O)[C@H]2O)O[C@@H]8COCC(C)O)O[C@@H]7COCC(C)O)O[C@@H]6COCC(C)O)O[C@@H]5COCC(C)O)O[C@@H]4COCC(C)O)O[C@@H]3COCC(C)O (stereo partly drawn) [HPBCD, 2-hydroxypropyl-beta-cyclodextrin]
- airway hyperresponsiveness induced by ovalbumin ([1]; FIG. 2B): significantly decrease
- number of inflammatory cells in BALF ([1]; FIG. 2C): significantly decrease
- number of eosinophils around the bronchi ([1]; FIG. 2D): significantly decrease
- cytotoxicity (BrdU incorporation) [2]: not associated with cytotoxicity
- airway responsiveness to methacholine (Newtonian resistance) ([3]; HPBCD 10 mM inhalation vs PBS, HDM-challenged mice, FIG. 1B): significantly decreased
- extent of inflammation around the bronchi ([3]; HPBCD vs placebo, FIG. 1D): reduced
- number of Alcian blue positive mucus producing epithelial cells ([3]; HPBCD vs placebo, FIG. 1E): reduced
- eosinophilic inflammation in BALF ([3]; HPBCD-exposed vs placebo, FIG. 1C): significantly decreased
- number of TH2 cells (CD3+CD4+T1ST2+ ICOS+) in lung parenchyma ([3]; mouse, in vivo): nor the number of TH2 cells (CD3+CD4+T1ST2+ ICOS+) were modified
- number of total CD4+ T-cells (CD3+CD4+) in lung parenchyma ([3]; mouse, in vivo): Neither the number of total CD4+ T-cells (CD3+CD4+) nor the number of TH2 cells (CD3+CD4+T1ST2+ ICOS+) were modified

From patent US20210386668A1, “Cyclodextrin for use in the treatment and prevention of late phase bronchoconstriction in allergen-induced asthma” (Universite de Liege, priority 2020, published 2021)
